Data from ChEMBL document CHEMBL1156106 (J Med Chem, 2009).

What was measured:
[1] = tested on: Rattus norvegicus; assay: Effect on behavioural activity in rat assessed as cocaine-induced lever response at 50 mg/kg, ip pretreated with cocaine for 335 mins by drug-discrimination studies; type: functional; settings: route intraperitoneal
[2] = tested on: Rattus norvegicus; assay: Effect on behavioural activity in rat assessed as cocaine-induced lever response at 10 mg/kg, ip pretreated with cocaine for 335 mins by drug-discrimination studies; type: functional; settings: route intraperitoneal
[3] = tested on: Mus musculus; assay: Antidepressant activity in ip dosed mouse assessed as duration of locomotor activity; type: functional
[4] = tested on: Mus musculus; assay: Antidepressant activity in ip dosed mouse assessed as time to reach peak stimulation of locomotor activity; type: functional
[5] = tested on: Mus musculus; assay: Antidepressant activity in ip dosed mouse assessed as stimulation of locomotor activity relative to cocaine; type: functional
[6] = tested on: Mus musculus; assay: Antidepressant activity in ip dosed mouse assessed as stimulation of locomotor activity; type: functional
[7] = tested on: Rattus norvegicus; assay: Effect on behavioural activity in rat assessed as cocaine-induced lever response at 100 mg/kg, ip pretreated with cocaine for 335 mins by drug-discrimination studies; type: functional; settings: route intraperitoneal
[8] = tested on: Rattus norvegicus; assay: Effect on behavioural activity in rat assessed as cocaine-induced lever response at 25 mg/kg, ip pretreated with cocaine for 335 mins by drug-discrimination studies; type: functional; settings: route intraperitoneal
[9] = molecular target: Sodium-dependent noradrenaline transporter (Homo sapiens, UniProt P23975); assay: Displacement of [125I]RTI55 from cloned human NET expressed in HEK293 cells; type: cell-based
[10] = tested on: Rattus norvegicus; assay: Effect on behavioural activity in rat assessed as cocaine-induced lever response at 2.5 mg/kg, po pretreated with cocaine for 180 mins by drug-discrimination studies; type: functional
[11] = tested on: Rattus norvegicus; assay: Effect on behavioural activity in rat assessed as cocaine-induced lever response at 100 mg/kg, po pretreated with cocaine for 180 mins by drug-discrimination studies; type: functional
[12] = tested on: Rattus norvegicus; assay: Effect on behavioural activity in po dosed rat assessed as cocaine-induced lever response pretreated with cocaine by drug-discrimination studies; type: functional
[13] = tested on: Rattus norvegicus; assay: Effect on behavioural activity in rat assessed as cocaine-induced lever response at 100 mg/kg, po pretreated with cocaine for 90 mins by drug-discrimination studies; type: functional
[14] = tested on: Rattus norvegicus; assay: Effect on behavioural activity in rat assessed as cocaine-induced lever response at 2.5 mg/kg, po pretreated with cocaine for 90 mins by drug-discrimination studies; type: functional
[15] = tested on: Rattus norvegicus; assay: Effect on behavioural activity in rat assessed as cocaine-induced lever response at 10 mg/kg, po pretreated with cocaine for 360 mins by drug-discrimination studies; type: functional
[16] = tested on: Rattus norvegicus; assay: Effect on behavioural activity in rat assessed as cocaine-induced lever response at 2.5 mg/kg, ip pretreated with cocaine for 30 mins by drug-discrimination studies; type: functional; settings: route intraperitoneal
[17] = tested on: Rattus norvegicus; assay: Effect on behavioural activity in rat assessed as cocaine-induced lever response at 10 mg/kg, ip pretreated with cocaine for 30 mins by drug-discrimination studies; type: functional; settings: route intraperitoneal
[18] = tested on: Rattus norvegicus; assay: Effect on behavioural activity in rat assessed as cocaine-induced lever response at 5 mg/kg, po pretreated with cocaine for 45 mins by drug-discrimination studies; type: functional
[19] = tested on: Rattus norvegicus; assay: Effect on behavioural activity in rat assessed as cocaine-induced lever response at 100 mg/kg, po pretreated with cocaine for 360 mins by drug-discrimination studies; type: functional
[20] = tested on: Rattus norvegicus; assay: Effect on behavioural activity in rat assessed as cocaine-induced lever response at 2.5 mg/kg, po pretreated with cocaine for 360 mins by drug-discrimination studies; type: functional
[21] = molecular target: Sodium-dependent serotonin transporter (Homo sapiens, UniProt P31645); assay: biochemical; type: cell-based, HEK293
[22] = tested on: Rattus norvegicus; assay: Effect on behavioural activity in ip dosed rat assessed as cocaine-induced lever response pretreated with cocaine by drug-discrimination studies; type: functional
[23] = tested on: Rattus norvegicus; assay: Effect on behavioural activity in rat assessed as cocaine-induced lever response at 25 mg/kg, po pretreated with cocaine for 90 mins by drug-discrimination studies; type: functional
[24] = tested on: Rattus norvegicus; assay: Effect on behavioural activity in rat assessed as cocaine-induced lever response at 5 mg/kg, po pretreated with cocaine for 360 mins by drug-discrimination studies; type: functional
[25] = tested on: Rattus norvegicus; assay: Effect on behavioural activity in rat assessed as cocaine-induced lever response at 25 mg/kg, ip pretreated with cocaine for 30 mins by drug-discrimination studies; type: functional; settings: route intraperitoneal
[26] = tested on: Rattus norvegicus; assay: Effect on behavioural activity in rat assessed as cocaine-induced lever response at 50 mg/kg, po pretreated with cocaine for 90 mins by drug-discrimination studies; type: functional
[27] = tested on: Rattus norvegicus; assay: Effect on behavioural activity in rat assessed as cocaine-induced lever response at 25 mg/kg, po pretreated with cocaine for 180 mins by drug-discrimination studies; type: functional
[28] = tested on: Rattus norvegicus; assay: Effect on behavioural activity in rat assessed as cocaine-induced lever response at 200 mg/kg, po pretreated with cocaine for 45 mins by drug-discrimination studies; type: functional
[29] = tested on: Rattus norvegicus; assay: Effect on behavioural activity in rat assessed as cocaine-induced lever response at 50 mg/kg, po pretreated with cocaine for 360 mins by drug-discrimination studies; type: functional
[30] = tested on: Rattus norvegicus; assay: Effect on behavioural activity in rat assessed as cocaine-induced lever response at 50 mg/kg, po pretreated with cocaine for 180 mins by drug-discrimination studies; type: functional
[31] = tested on: Rattus norvegicus; assay: Effect on behavioural activity in rat assessed as cocaine-induced lever response at 2.5 mg/kg, po pretreated with cocaine for 45 mins by drug-discrimination studies; type: functional
[32] = tested on: Rattus norvegicus; assay: Effect on behavioural activity in rat assessed as cocaine-induced lever response at 10 mg/kg, po pretreated with cocaine for 90 mins by drug-discrimination studies; type: functional
[33] = tested on: Rattus norvegicus; assay: Effect on behavioural activity in rat assessed as cocaine-induced lever response at 100 mg/kg, po pretreated with cocaine for 45 mins by drug-discrimination studies; type: functional
[34] = tested on: Rattus norvegicus; assay: Effect on behavioural activity in rat assessed as cocaine-induced lever response at 5 mg/kg, po pretreated with cocaine for 90 mins by drug-discrimination studies; type: functional
[35] = tested on: Rattus norvegicus; assay: Effect on behavioural activity in rat assessed as cocaine-induced lever response at 50 mg/kg, po pretreated with cocaine for 45 mins by drug-discrimination studies; type: functional
[36] = tested on: Rattus norvegicus; assay: Effect on behavioural activity in rat assessed as cocaine-induced lever response at 10 mg/kg, po pretreated with cocaine for 180 mins by drug-discrimination studies; type: functional
[37] = tested on: Rattus norvegicus; assay: Effect on behavioural activity in rat assessed as cocaine-induced lever response at 5 mg/kg, ip pretreated with cocaine for 30 mins by drug-discrimination studies; type: functional; settings: route intraperitoneal
[38] = tested on: Rattus norvegicus; assay: Effect on behavioural activity in rat assessed as cocaine-induced lever response at 200 mg/kg, po pretreated with cocaine for 180 mins by drug-discrimination studies; type: functional
[39] = tested on: Rattus norvegicus; assay: Effect on behavioural activity in rat assessed as cocaine-induced lever response at 200 mg/kg, po pretreated with cocaine for 360 mins by drug-discrimination studies; type: functional
[40] = tested on: Rattus norvegicus; assay: Effect on behavioural activity in rat assessed as cocaine-induced lever response at 25 mg/kg, po pretreated with cocaine for 45 mins by drug-discrimination studies; type: functional
[41] = tested on: Rattus norvegicus; assay: Effect on behavioural activity in rat assessed as cocaine-induced lever response at 200 mg/kg, po pretreated with cocaine for 90 mins by drug-discrimination studies; type: functional
[42] = tested on: Rattus norvegicus; assay: Effect on behavioural activity in rat assessed as cocaine-induced lever response at 5 mg/kg, po pretreated with cocaine for 180 mins by drug-discrimination studies; type: functional
[43] = tested on: Rattus norvegicus; assay: Effect on behavioural activity in rat assessed as cocaine-induced lever response at 10 mg/kg, po pretreated with cocaine for 45 mins by drug-discrimination studies; type: functional
[44] = tested on: Rattus norvegicus; assay: Effect on behavioural activity in rat assessed as cocaine-induced lever response at 25 mg/kg, po pretreated with cocaine for 360 mins by drug-discrimination studies; type: functional

Sodium-dependent serotonin transporter, sequence (P31645 whole entry): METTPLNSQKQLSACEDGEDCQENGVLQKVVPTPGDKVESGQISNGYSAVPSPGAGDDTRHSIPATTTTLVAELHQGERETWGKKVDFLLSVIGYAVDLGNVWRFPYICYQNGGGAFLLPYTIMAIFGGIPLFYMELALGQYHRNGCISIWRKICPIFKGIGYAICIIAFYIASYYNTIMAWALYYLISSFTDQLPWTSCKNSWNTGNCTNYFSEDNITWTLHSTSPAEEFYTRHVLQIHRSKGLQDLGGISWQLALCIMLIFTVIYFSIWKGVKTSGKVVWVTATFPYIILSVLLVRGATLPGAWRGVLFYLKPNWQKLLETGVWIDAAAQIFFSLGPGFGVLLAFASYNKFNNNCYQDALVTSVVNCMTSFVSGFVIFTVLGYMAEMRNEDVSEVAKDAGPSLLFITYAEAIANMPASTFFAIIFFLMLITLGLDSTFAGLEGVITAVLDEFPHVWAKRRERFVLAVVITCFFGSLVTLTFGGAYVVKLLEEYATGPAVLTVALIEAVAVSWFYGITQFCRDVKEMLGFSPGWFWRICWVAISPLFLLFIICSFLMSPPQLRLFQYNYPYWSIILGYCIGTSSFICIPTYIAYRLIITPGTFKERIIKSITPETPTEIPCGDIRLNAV
Sodium-dependent noradrenaline transporter, sequence (P23975 whole entry): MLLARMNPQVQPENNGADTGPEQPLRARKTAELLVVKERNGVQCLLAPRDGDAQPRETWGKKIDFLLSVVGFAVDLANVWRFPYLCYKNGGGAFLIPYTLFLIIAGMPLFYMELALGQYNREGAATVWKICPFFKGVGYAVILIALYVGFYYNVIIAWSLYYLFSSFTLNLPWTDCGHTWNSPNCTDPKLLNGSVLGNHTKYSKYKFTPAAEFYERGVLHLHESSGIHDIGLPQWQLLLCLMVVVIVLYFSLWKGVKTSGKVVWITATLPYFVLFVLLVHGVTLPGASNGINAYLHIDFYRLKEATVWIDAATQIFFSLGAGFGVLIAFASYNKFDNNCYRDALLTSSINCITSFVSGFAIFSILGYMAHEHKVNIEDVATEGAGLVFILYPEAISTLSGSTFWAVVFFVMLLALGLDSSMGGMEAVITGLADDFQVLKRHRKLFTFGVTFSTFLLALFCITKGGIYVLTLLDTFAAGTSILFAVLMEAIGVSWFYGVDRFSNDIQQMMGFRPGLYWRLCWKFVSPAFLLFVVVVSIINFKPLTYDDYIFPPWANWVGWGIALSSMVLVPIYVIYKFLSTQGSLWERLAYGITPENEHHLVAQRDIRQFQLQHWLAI

CC(C(=O)c1cccc(Cl)c1)N1CCCCC1 (stereo not drawn)
Activity [1]: 32.7% | Activity [2]: 7% | Time [3]: 30 min | Time to peak locomotor stimulation [4]: 320 min | Activity [5]: 45% | ED50 [6]: 34.7 mg/kg | Activity [7]: 33.7% | Activity [8]: 16.5%

CC(NC(C)(C)C)C(=O)c1cccc(Br)c1 (stereo not drawn)
Ki [9]: > 7.14 µM | Activity [10]: 0% | Activity [11]: 34% | ED50 [12]: 52.9 mg/kg | Activity [13]: 56% | Activity [14]: 0% | Activity [15]: 0% | Activity [16]: 0.3% | Activity [17]: 21% | Activity [18]: 0% | Activity [19]: 14% | Activity [20]: 33% | Ki [21]: > 10 µM | ED50 [22]: 39.6 mg/kg | Activity [23]: 0% | Activity [24]: 7% | Activity [25]: 83.6% | Activity [26]: 21% | Time [3]: 90 min | Time to peak locomotor stimulation [4]: 0 min | Activity [27]: 0% | Activity [28]: 100% | Activity [29]: 0% | Activity [30]: 0% | Activity [31]: 13% | Activity [5]: 57% | ED50 [6]: 13.5 mg/kg | Activity [32]: 0% | Activity [33]: 67% | Activity [34]: 15% | Activity [35]: 51% | Activity [36]: 0% | Activity [37]: 34.4% | Activity [38]: 5% | Activity [39]: 34% | Activity [40]: 17% | Activity [41]: 100% | Activity [42]: 0% | Activity [43]: 0% | Activity [44]: 0%
